Reference: the NIST ThermoML archive (doi:10.1016/j.tca.2011.01.001)

Key:
[1] = Molar enthalpy of transition or fusion; conditions: Crystal; DSC

O=C(O)c1ccc(O)c(O)c1 [3,4-dihydroxybenzoic acid]
Conditions | Molar enthalpy of transition or fusion [kcal/mol]
[1] | 8.13

Conditions | vapor or sublimation pressure [kPa]
381.8 K, Crystal, Torsion effusion method | 6e-05
383 K, Crystal, Torsion effusion method | 6.7e-05
384.5 K, Crystal, Torsion effusion method | 7.7e-05
385.6 K, Crystal, Torsion effusion method | 8.7e-05
387.2 K, Crystal, Torsion effusion method | 0.000104
388.6 K, Crystal, Torsion effusion method | 0.000117
390 K, Crystal, Torsion effusion method | 0.000143
391.4 K, Crystal, Torsion effusion method | 0.00016
392.8 K, Crystal, Torsion effusion method | 0.000191
394.2 K, Crystal, Torsion effusion method | 0.000216
395.4 K, Crystal, Torsion effusion method | 0.000251
396.9 K, Crystal, Torsion effusion method | 0.000286
398.3 K, Crystal, Torsion effusion method | 0.00033
399.8 K, Crystal, Torsion effusion method | 0.000377
401.2 K, Crystal, Torsion effusion method | 0.000465
402.6 K, Crystal, Torsion effusion method | 0.000533
404 K, Crystal, Torsion effusion method | 0.00061
405.4 K, Crystal, Torsion effusion method | 0.000701
406.8 K, Crystal, Torsion effusion method | 0.000804
407.7 K, Crystal, Torsion effusion method | 0.000876
408.9 K, Crystal, Torsion effusion method | 0.000997
485.2 K, Liquid, Non-isothermal TG | 0.819
485.8 K, Liquid, Non-isothermal TG | 0.807
486.2 K, Liquid, Non-isothermal TG | 0.892
486.8 K, Liquid, Non-isothermal TG | 0.868
487.2 K, Liquid, Non-isothermal TG | 0.933
487.7 K, Liquid, Non-isothermal TG | 0.902
488.1 K, Liquid, Non-isothermal TG | 0.974
488.4 K, Liquid, Isothermal TG | 0.983
488.7 K, Liquid, Non-isothermal TG | 0.967
488.8 K, Liquid, Isothermal TG | 1.007
489.1 K, Liquid, Non-isothermal TG | 1.005
489.2 K, Liquid, Isothermal TG | 1.027
489.6 K, Liquid, Isothermal TG | 1.061
489.7 K, Liquid, Non-isothermal TG | 1.033
490 K, Liquid, Isothermal TG | 1.074
490.1 K, Liquid, Non-isothermal TG | 1.129
490.4 K, Liquid, Isothermal TG | 1.092
490.7 K, Liquid, Non-isothermal TG | 1.087
490.8 K, Liquid, Isothermal TG | 1.129
491.1 K, Liquid, Non-isothermal TG | 1.188
491.2 K, Liquid, Isothermal TG | 1.153
491.6 K, Liquid, Isothermal TG | 1.192
491.7 K, Liquid, Non-isothermal TG | 1.162
492 K, Liquid, Isothermal TG | 1.22
492.2 K, Liquid, Non-isothermal TG | 1.221
492.4 K, Liquid, Isothermal TG | 1.254
492.7 K, Liquid, Non-isothermal TG | 1.286
492.8 K, Liquid, Isothermal TG | 1.28
493.1 K, Liquid, Non-isothermal TG | 1.327
493.2 K, Liquid, Isothermal TG | 1.32
493.6 K, Liquid, Isothermal TG | 1.346
493.7 K, Liquid, Non-isothermal TG | 1.298
494 K, Liquid, Isothermal TG | 1.374
494.1 K, Liquid, Non-isothermal TG | 1.375
494.4 K, Liquid, Isothermal TG | 1.381
494.7 K, Liquid, Non-isothermal TG | 1.365
494.8 K, Liquid, Isothermal TG | 1.445
495 K, Liquid, Non-isothermal TG | 1.494
495.2 K, Liquid, Isothermal TG | 1.477
495.6 K, Liquid, Isothermal TG | 1.482
495.7 K, Liquid, Non-isothermal TG | 1.435
495.9 K, Liquid, Non-isothermal TG | 1.566
496 K, Liquid, Isothermal TG | 1.529
496.4 K, Liquid, Isothermal TG | 1.557
496.7 K, Liquid, Non-isothermal TG | 1.477
496.8 K, Liquid, Isothermal TG | 1.584
496.9 K, Liquid, Non-isothermal TG | 1.652
497.2 K, Liquid, Isothermal TG | 1.607
497.6 K, Liquid, Isothermal TG | 1.636
497.7 K, Liquid, Non-isothermal TG | 1.634
498 K, Liquid, Isothermal TG | 1.682
498 K, Liquid, Non-isothermal TG | 1.745
498.4 K, Liquid, Isothermal TG | 1.699
498.8 K, Liquid, Isothermal TG | 1.728
498.8 K, Liquid, Non-isothermal TG | 1.703
499 K, Liquid, Non-isothermal TG | 1.71
499.1 K, Liquid, Isothermal TG | 1.751
499.5 K, Liquid, Isothermal TG | 1.764
499.7 K, Liquid, Non-isothermal TG | 1.817
499.9 K, Liquid, Non-isothermal TG | 1.882
500 K, Liquid, Isothermal TG | 1.815
500.4 K, Liquid, Isothermal TG | 1.865
500.7 K, Liquid, Isothermal TG | 1.879
500.7 K, Liquid, Non-isothermal TG | 1.858
501 K, Liquid, Non-isothermal TG | 1.898
501.2 K, Liquid, Isothermal TG | 1.914
501.6 K, Liquid, Isothermal TG | 1.939
501.7 K, Liquid, Non-isothermal TG | 1.899
502 K, Liquid, Isothermal TG | 1.945
502 K, Liquid, Non-isothermal TG | 1.962
502.4 K, Liquid, Isothermal TG | 2.003
502.7 K, Liquid, Non-isothermal TG | 1.95
502.8 K, Liquid, Isothermal TG | 2.047
503.1 K, Liquid, Non-isothermal TG | 2.033
503.8 K, Liquid, Non-isothermal TG | 2.014
504.1 K, Liquid, Non-isothermal TG | 2.184
504.7 K, Liquid, Non-isothermal TG | 2.179
505 K, Liquid, Non-isothermal TG | 2.292
505.7 K, Liquid, Non-isothermal TG | 2.217

Conditions | Normal melting temperature [°C]
Crystal, DTA | 201.8
